Data from US11793746B2, “Intense skin hydration systems and methods” (priority 2020, dated 2023).

Key:
[1] = test system: lysyl oxidase; experiment: Lysyl oxidase activity in wound-margin biopsies after surgical and xylene injury; assay type: in vivo, nude mice
Experimental: The dermotrophic effect of GC-100 was also determined using lysyl oxidase levels as an endpoint to determine whether GC-100 can effect the concentration of lysyl oxidase in wounded tissues and to establish whether GC-100 can accelerate the wound healing process using qualitative measurements.
Nude mice were chosen because their skin (and their lack of hair) is more similar to human skin than are other commonly used laboratory test animals. The test population was divided into 4 groups of 10 nude mice for the purpose of examining the best application sequence for GC-100 relative to injury. Group definitions are as follows:
A surgical wound measuring 2.54 cm in length and penetrating the dermis was made on the right hind quarter of all test subjects after appropriate anesthesia was administered.
A second index of injury using 1% xylene was used in all test subjects after creation of the surgical wound. Using a sterile tuberculin syringe, 0.1 mL of a 1% xylene solution was injected subcutaneously into the region of the surgical wound. The final size of the injury measured 25×20 mm^2.
The mice in Groups II, III, and IV were divided randomly after physical and chemical injury into 2 subgroups of 5 mice each for application of either GC-100 0.5% or 1%. Pretreatment for Group II and IV mice was conducted one hour prior to any injury, where GC-100 0.5% and 1% was rubbed into the right hind quarter of the designated mice for 50 cycles using a nylon glove. Post-treatment for mice in Group III and IV with GC-100 0.5% and 1% was conducted immediately after injury.
Wound recovery was determined over 30 days using cutaneous punch biopsies that were taken on post injury day 4, and at the conclusion of weeks 2, 3, and 4 from the wound margins. Biopsy specimens were analyzed for lysyl oxidase activity using a standard assay. Results are shown in Table 3 and FIG. 6, which is a graph showing percent lysyl oxidase as a function of treatment schedule and GC-100 concentration.

[2] = Radial forearm free-flap, trophic effect; assay type: in vivo
[3] = test system: collagen I and III synthesis; experiment: [3H]-Proline incorporation as measure of collagen deposition; assay type: cell-based, human; details: in vitro
From the text: This human skin substrate consists of neonatal foreskin fibroblasts that secrete a functionally active extracellular matrix grown on a medical-grade nylon mesh cocultured with human neonatal foreskin keratinocytes that differentiate into a multilayered epidermis.
Quantifying proline incorporation can be used to measure potential collagen deposition stimulated by a test substance. This concept is the foundation for the following experiments.

[4] = test system: ultraviolet-induced erythema; experiment: Ultraviolet-induced erythema, erythema scale; assay type: in vivo; details: for Erythema score (mean ± SD): scale 0 none to 4 severe
Experimental: The anti-inflammatory activity of GC-100 was evaluated using ultraviolet-induced erythema as an endpoint.
Ultraviolet radiation generates a predictable, dose-dependent cutaneous response over time. The pathological mechanism includes injury to epidermal, dermal, and vascular constituents of the skin with a local inflammatory response mediated by proinflammatory cytokines and prostaglandins. It is the objective of this experiment to determine whether GC-100 can alleviate an ultraviolet-mediated inflammatory response by qualitative assessment
Erythema was quantified after 2, 4, 5, and 24 hours following irradiation using a standard erythema scale that has been shown historically to yield reproducible results.

[5] = test system: photodamaged human skin; experiment: Pilot open label study on photoaged skin: epidermal thickness by high frequency ultrasound; assay type: in vivo; details: for % change (epidermal thickness, ultrasound): range over panelists
Experimental: (§1) A pilot open label study was conducted to establish the efficacy of GC-100 on photoaged skin in a clinical setting.
(§2) Primary endpoints for this study were as follows: • 1. Epidermal skin thickness was measured using high frequency ultrasound. • 2. Panelists regard for their overall appearance and any changes noted in the appearance of their wrinkles, lentigines, facial acne and pore size were used in qualitative analysis. In addition, panelists were asked to comment on irritation, novel rashes, and other side effects during the study period.
(§3) An open label, six week pilot study to examiner the regenerative effect of GC-100 was performed on 15 women with mild to moderate dermatoheliosis as defined by clinical examination. Exclusion criteria selected against patients with a history of retinoic acid use, dermabrasion, or chemical peel application within 6 months prior to study onset. However, all patients had used one or more of these products previously. After appropriate informed consent was obtained, baseline measurements of epidermal thickness using high frequency untrasonography (20 MHz and above) were collected using skin at the infraorbital prominence. Three measurements were taken at each site and averaged to yield a result. GC-100 was applied to the face and neck according to the following schedule: • Weekly: GC-100 applied in mask vehicle • Twice daily: GC-100 applied through lotion vehicle
(§4) The patient population was divided into two groups, where Group I was evaluated after 24 hours of product application, and Group II was evaluated at the conclusion of weeks 2, 4 and 6. A panelist questionnaire was completed during each evaluation session.

[6] = test system: photodamaged human skin; experiment: Pilot open label study on photoaged skin: panelist questionnaire and side effects; assay type: in vivo
Experimental: as §1, §2, §3, §4

[7] = Group I, evaluated after 24 hours of product application
[8] = Group II, evaluated at weeks 2, 4 and 6

Substance: H-Lys-Pro-NH2 [GC-100]
- % lysyl oxidase ([1]; Group II pretreatment, 0.5% GC-100, Day 4): 1.4%
- % lysyl oxidase ([1]; Group II pretreatment, 0.5% GC-100, Week 2): 10.2%
- % lysyl oxidase ([1]; Group II pretreatment, 0.5% GC-100, Week 3): 13.4%
- % lysyl oxidase ([1]; Group II pretreatment, 0.5% GC-100, Week 4): 45.9%
- % lysyl oxidase ([1]; Group II pretreatment, 1% GC-100, Day 4): 5.2%
- % lysyl oxidase ([1]; Group II pretreatment, 1% GC-100, Week 2): 18.2%
- % lysyl oxidase ([1]; Group II pretreatment, 1% GC-100, Week 3): 23.4%
- % lysyl oxidase ([1]; Group II pretreatment, 1% GC-100, Week 4): 45.9%
- % lysyl oxidase ([1]; Group III post-treatment, 0.5% GC-100, Day 4): 1.2%
- % lysyl oxidase ([1]; Group III post-treatment, 0.5% GC-100, Week 2): 3.2%
- % lysyl oxidase ([1]; Group III post-treatment, 0.5% GC-100, Week 3): 19.8%
- % lysyl oxidase ([1]; Group III post-treatment, 0.5% GC-100, Week 4): 48.7%
- % lysyl oxidase ([1]; Group III post-treatment, 1% GC-100, Day 4): 5.3%
- % lysyl oxidase ([1]; Group III post-treatment, 1% GC-100, Week 2): 11.5%
- % lysyl oxidase ([1]; Group III post-treatment, 1% GC-100, Week 3): 19.7%
- % lysyl oxidase ([1]; Group III post-treatment, 1% GC-100, Week 4): 49.6%
- % lysyl oxidase ([1]; Group IV pre- & post-treatment, 0.5% GC-100, Day 4): 21%
- % lysyl oxidase ([1]; Group IV pre- & post-treatment, 0.5% GC-100, Week 2): 30.1%
- % lysyl oxidase ([1]; Group IV pre- & post-treatment, 0.5% GC-100, Week 3): 42.4%
- % lysyl oxidase ([1]; Group IV pre- & post-treatment, 0.5% GC-100, Week 4): 52.8%
- % lysyl oxidase ([1]; Group IV pre- & post-treatment, 1% GC-100, Day 4): 47.2%
- % lysyl oxidase ([1]; Group IV pre- & post-treatment, 1% GC-100, Week 2): 50.5%
- % lysyl oxidase ([1]; Group IV pre- & post-treatment, 1% GC-100, Week 3): 58.8%
- % lysyl oxidase ([1]; Group IV pre- & post-treatment, 1% GC-100, Week 4): 62.7%
- acceleration of generalized healing ([2]; free flap full-thickness skin graft model, skin overlying a muscle belly): 50%
- physical examination of treated flap skin ([2]; superior half of flap treated three times over 9 days from postoperative day 14): noticeably thicker, smoother and less erythematous
- proline incorporation relative to Retin-A (retinoic acid) 0.025% [3]: more than twice
- % printed under erythema score (reduction vs control) ([4]; 0.1% GC-100, 2 hrs): 32%
- Erythema score (mean ± SD) ([4]; 0.1% GC-100, 2 hrs after irradiation): 1.89 ± 0.60
- % printed under erythema score (reduction vs control) ([4]; 0.1% GC-100, 4 hrs): 58.7%
- Erythema score (mean ± SD) ([4]; 0.1% GC-100, 4 hrs after irradiation): 1.56 ± 0.53
- % printed under erythema score (reduction vs control) ([4]; 0.1% GC-100, 5 hrs): 58.3%
- Erythema score (mean ± SD) ([4]; 0.1% GC-100, 5 hrs after irradiation): 1.67 ± 0.71
- % printed under erythema score (reduction vs control) ([4]; 0.1% GC-100, 24 hrs): 50%
- Erythema score (mean ± SD) ([4]; 0.1% GC-100, 24 hrs after irradiation): 1.00 ± 0.71
- effect on ultraviolet-induced erythema ([4]; 0.1%, 0.5%, 1% GC-100, greatest activity with 1%): ability to suppress ultraviolet-induced erythema
- % printed under erythema score (reduction vs control) ([4]; 0.5% GC-100, 2 hrs): 56.1%
- Erythema score (mean ± SD) ([4]; 0.5% GC-100, 2 hrs after irradiation): 1.22 ± 0.44
- % printed under erythema score (reduction vs control) ([4]; 0.5% GC-100, 4 hrs): 58.7%
- Erythema score (mean ± SD) ([4]; 0.5% GC-100, 4 hrs after irradiation): 1.56 ± 0.53
- % printed under erythema score (reduction vs control) ([4]; 0.5% GC-100, 5 hrs): 58.7%
- Erythema score (mean ± SD) ([4]; 0.5% GC-100, 5 hrs after irradiation): 1.56 ± 0.53
- % printed under erythema score (reduction vs control) ([4]; 0.5% GC-100, 24 hrs): 55.5%
- Erythema score (mean ± SD) ([4]; 0.5% GC-100, 24 hrs after irradiation): 0.89 ± 0.33
- % printed under erythema score (reduction vs control) ([4]; 1.0% GC-100, 2 hrs): 64%
- Erythema score (mean ± SD) ([4]; 1.0% GC-100, 2 hrs after irradiation): 1.00
- % printed under erythema score (reduction vs control) ([4]; 1.0% GC-100, 4 hrs): 67%
- Erythema score (mean ± SD) ([4]; 1.0% GC-100, 4 hrs after irradiation): 1.22 ± 0.44
- % printed under erythema score (reduction vs control) ([4]; 1.0% GC-100, 5 hrs): 66.81%
- Erythema score (mean ± SD) ([4]; 1.0% GC-100, 5 hrs after irradiation): 1.33 ± 0.50
- % printed under erythema score (reduction vs control) ([4]; 1.0% GC-100, 24 hrs): 83.5%
- Erythema score (mean ± SD) ([4]; 1.0% GC-100, 24 hrs after irradiation): 0.33 ± 0.50
- Mean % (change in epidermal thickness) [5, 7]: 8.5%
- % change (epidermal thickness, ultrasound) [5, 7]: 3.4-19.2%
- Mean % (change in epidermal thickness) [5, 8]: 7.95%
- % change (epidermal thickness, ultrasound) [5, 8]: 2.9-14%
- stratum corneum compaction spongiosis, granular cell layer thickness and epidermal thickness vs baseline ([5]; both treatment groups, high frequency ultrasound): significant increase over baseline
- average increase in epidermal thickness ([5]; six weeks after application): 8%
- Incidence of side effects ([6]; panelist questionnaire): 0%
- Positive response: Decreased appearance of lentigines ([6]; panelist questionnaire): 54%
- Positive response: Decreased appearance of pores ([6]; panelist questionnaire): 92%
- Positive response: Decreased appearance of wrinkles ([6]; panelist questionnaire): 62%
- Positive response: Decreased incidence of blemishes ([6]; panelist questionnaire): 92%
- Positive response: Improved overall cosmetic appearance ([6]; panelist questionnaire): 92%
- clinical irritation during the study ([6]; six week study, face and neck): No clinically detectable irritation
